Read-outs that look alike come from different tables or passages of the source. Numbered stars: 1 amine (or outer) side, 2 acyl side, 3 side chain; on linkers, the order of the positions; unused ones are H or OH. Bridge positions count the residues as written; N and C are the ends. Square brackets hold non-standard residues; d marks the D form. Side chains are listed from the residue outwards. Peptide text beside a SMILES is read from it. * marks the point of attachment. Gly(Dodecyl) = CCCCCCCCCCCC[C@H](N)C(=O)O; X2 = CCCCCCCCCC[C@@H](N[*:1])C(=O)[*:2]; γGlu = O=C(O)[C@H](CCC(=O)[*:2])N[*:1]; Myristoyl = CCCCCCCCCCCCCC(=O)*; Lauroyl = CCCCCCCCCCCC(=O)*; Dab = NCC[C@H](N)C(=O)O; Dodecyl = CCCCCCCCCCCC*
How the values were obtained:
[1] = Cytotoxicity, MTT reduction assay, COS-7 cells; assay type: cell-based; settings: African green monkey, COS-7 cells (CRL-1651), 12.5-50 μM
Description: (§1) Mouse pre-B cells were cultured in RPMI1640 plus 5% FBS, antibiotic/antimycotic, non essential amino acid, 50 μM β-mercaptoethanol and 1 mM natrium pyruvate. HELA cells were maintained in RPMI1640 plus 10% FBS, pen/strept and 2 mM L-glutamine. Cos-7 cells were grown in DMEM medium with […] glucose supplemented with 10% FCS, pen/strept and 2 mM L-glutamine. All cell lines were grown at 37° C. at 5% CO2. Cell media, media supplements, PBS-buffer, HEPES, antibiotic/antimycotic, pen/strept, non essential amino acid, L-glutamine, β-mercaptoethanol and sera were purchased from Gibco (Pailsey, UK). All fine chemicals were supplied by Merck (Darmstadt, Germany).
(§2) The cytotoxicity of the peptides to HELA cells (Acc57) and COS-7 cells (CRL-1651) was determined using the MTT reduction assay (T. Mossman, J. Immunol. Meth. 1983, 65, 55-63; M. V. Berridge, A. S. Tan, Arch. Biochem. Biophys. 1993, 303, 474-482). Briefly, the method was as follows: 4000 HELA cells/well and 3400 COS-7 cells/well were seeded and grown in 96-well microtiter plates for 24 h at 37° C. at 5% CO2. Thereafter, time zero (Tz) was determined by MTT reduction (see below). The supernatant of the remaining wells was discarded, and fresh medium and compounds in serial dilutions (12.5, 25 and 50 μM, triplicates) were pipetted into the wells. After incubation of the cells for 48 h at 37° C. at 5% CO2 the supernatant was discarded again and 100 μL MTT reagent (0.5 mg/mL in RPMI1640 and DMEM, respectively)/well was added. Following incubation at 37° C. for 2-4 h the media were aspirated and the cells were spiked (100 μL isopropanol/well). The absorbance of the solubilized formazan was measured at 595 nm (OD595peptide). For each concentration averages were calculated from triplicates. The percentage of growth was calculated as follows: (OD595peptide-OD595Tz-OD595Empty well)/(OD595Tz-OD595Empty well)×100%. The GI50 (Growth Inhibition) concentrations were calculated for each peptide by using a trend line function for the concentrations (50, 25, 12.5 and 0 μM), the corresponding percentages and the value 50, (=TREND (C50: C0, %50:%0,50).

human CXCR4 = biological target: T1, human CXCR4 (Homo sapiens, UniProt P61073); assay: Ca2+-assay: CXCR4-antagonizing activity (SDF-1 induced calcium mobilization); assay type: cell-based
T1 construct: expressed in transfected cells; host or cells: mouse pre-B cell line 300-19
Text: 2.3. Ca^2+-Assay: CXCR4-Antagonizing Activity of the Peptides
Increases in intracellular calcium were monitored using a Flexstation 384 (Molecular Devices, Sunnyvale, Calif.) to assay the peptides for CXCR4 antagonism in a mouse pre-B cell line 300-19 stably transfected with human CXCR4 (E. Oberlin, A. Amara, F. Bachelerie, C. Bessia, J.-L. Virelizier, F. Arenzana-Seisdedos, O, Schwartz, J.-M. Heard, I. Clark-Lewis, D. F. Legler, M. Loetscher, M. Baggiolini, B. Moser, Nature 1996, 382, 833-835; M. Loetscher, T. Geiser, T. O'Reilly, R. Zwalen, M. Baggiolini, B. Moser, J. Biol. Chem. 1994, 269, 232-237; M. D'Apuuo, A. Rolink, M. Loetscher, J. A. Hoxie, I. Clark-Lewis, F. Melchors, M. Baggiolini, B. Moser, Eur. J. Immunol. 1997, 27, 1788-1793). The cells were batch loaded with the Calcium 4 Assay kit (Molecular Devices) in assay buffer (Hanks Balanced salt solution [HBSS], 20 mM HEPES, pH 7.4, 0.1% BSA) for 1 h at room temperature and labeled cells were dispensed into black well assays plates (Costar No. 3603). Calcium mobilization induced by stromal-derived factor-1 (SDF-1) was measured in the Flexstation 384 (excitation: 485 nm; emission: 525 nm) for 90 seconds. Antagonist activity of peptides was determined by spiking the cells with compounds prior to SDF-1 addition. Dose response curves (compound concentration versus % maximum response for SDF-1) were determined for each antagonist and IC50 values were calculated by fitting the data to a four parameter logistic equation using SoftmaxPro 4.8 (Molecular Devices).

[2] = system: human red blood cells (hRBC); assay: Hemolysis of human red blood cells; assay type: cell-based; settings: 20% hRBC, 1 h, 37° C.
Description: The peptides were tested for their hemolytic activity against human red blood cells (hRBC). Fresh hRBC were washed three times with phosphate buffered saline (PBS) and centrifuged for 10 min at 2000×g. Compounds (100 μM) were incubated with 20% hRBC (v/v) for 1 h at 37° C. and shaking at 300 rpm. The final erythrocyte concentration was approximately 0.9×10^9 cells/mL. A value of 0% and 100% cell lyses, respectively, was determined by incubation of hRBC in the presence of PBS containing 0.001% acetic acid and 2.5% Triton X-100 in H2O, respectively. The samples were centrifuged, the supernatants were 8-fold diluted in PBS buffer and the optical densities (OD) were measured at 540 nm. The 100% lyses value (OD540H2O) gave an OD540 of approximately 0.5-1.0.
(§3) Percent hemolysis was calculated as follows: (OD540peptide/OD540H2O)×100%. 2.6. Plasma Stability

[3] = Plasma stability in human plasma; assay type: in vitro ADME; settings: human plasma, 37° C.; for remaining at 24 h, 10 μM: 1440 min, read-out: human pl. cpd left at 1440 min; for human pl. T1/2: up to 1440 min
Description: as §3
(§4) The stability of the peptides in human and mouse plasma was determined by applying the following method: 346.5 μL/deep well of freshly thawed human plasma (Basler Blutspendedienst) and mouse plasma (Harlan Sera-Lab, UK), respectively, were spiked with 3.5 μL/well of compound dissolved in DMSO/H2O ([…] [v/v], 1 mM, triplicate) and incubated at 37° C. At t=0, 15, 30, 60, 120, 240 and 1440 min aliquots of 50 μL were transferred to filtration plate wells containing 150 μL/well of 2% formic acid in acetonitrile. Following shaking for 2 min the occurred suspensions were filtrated by vacuum and 50 μL of each filtrate was mixed with 100 μL of 1% formic acid in H2O. After transfer to a propylene microtiter plate, the filtrates were analyzed by LC/MS as follows: Column: Waters, XBridge C18, mobile phases: (A) water+0.1% formic acid and (B) acetonitrile/water, 95/5 (v/v)+0.1% formic acid, gradient: 5%-100% (B) in 2 minutes, electrospray ionization, MRM detection (triple quadrupole). The peak areas were determined and triplicate values are averaged. The stability is expressed in percent of the initial value at t=0. (tx/t0×100). By using the TREND function of EXCEL (Microsoft Office 2003) T1/2 were determined.

[4] = Cytotoxicity, MTT reduction assay, HELA cells; assay type: cell-based; settings: human, HELA cells (Acc57), 12.5-50 μM
Description: as §1, §2

[5] = Plasma stability in mouse plasma; assay type: in vitro ADME; settings: mouse plasma, 37° C.; for remaining at 24 h, 10 μM: 1440 min, read-out: mouse pl. cpd left at 1440 min
Description: as §3, §4

[6] = mouse pre-B cell line 300-19 transfected with human CXCR4, SDF-1 induced Ca2+ mobilization, read-out: IC50% [nM] ± SD, CXCR4 receptor

T1 sequence (P61073 whole entry): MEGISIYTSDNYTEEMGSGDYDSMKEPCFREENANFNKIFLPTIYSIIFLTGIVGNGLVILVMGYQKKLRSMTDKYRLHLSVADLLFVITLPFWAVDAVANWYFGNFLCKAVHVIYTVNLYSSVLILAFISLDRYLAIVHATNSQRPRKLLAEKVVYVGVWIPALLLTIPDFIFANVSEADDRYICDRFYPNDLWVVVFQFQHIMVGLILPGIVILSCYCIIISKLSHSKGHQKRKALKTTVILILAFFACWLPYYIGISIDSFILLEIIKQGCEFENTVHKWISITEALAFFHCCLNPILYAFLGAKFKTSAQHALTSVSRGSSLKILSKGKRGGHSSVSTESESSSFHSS

| SMILES | GI50 at 48 h [1] [µM] | IC50 (human CXCR4; [6]) [nM] | Hemolysis at 100 μM [2] [%] | remaining at 24 h, 10 μM [3] [%] | human pl. T1/2 [3] [h] | GI50 at 48 h [4] [µM] | remaining at 24 h, 10 μM [5] [%] | mouse pl. T1/2 ([5]; up to 1440 min) [h] | IC50 (human CXCR4) [nM] | half-life at 10 μM ([5]; up to 1440 min, read-out: mouse pl. T1/2) [h] |
| --- | --- | --- | --- | --- | --- | --- | --- | --- | --- | --- |
| CCCCCCCCCCCC(=O)N[C@@H](CCC(=O)NCCCC[C@@H]1NC(=O)[C@H](Cc2ccc(O)cc2)NC(=O)[C@@H]2CSSC[C@H](NC(=O)[C@H](C)NC(=O)[C@H](Cc3c[nH]cn3)NC(=O)[C@H](Cc3ccc(O)cc3)NC(=O)[C@@H]3CCCN3C(=O)[C@H]3CCCN3C(=O)[C@H](CCCCN)NC1=O)C(=O)N[C@@H](CCCNC(=N)N)C(=O)NCC(=O)N1CCC[C@@H]1C(=O)N[C@@H](CCN)C(=O)N[C@@H](CCCNC(=N)N)C(=O)N[C@@H](Cc1ccc(O)cc1)C(=O)N2)C(=O)O [compound 27] (cyclo(YHACRG[dP][Dab]RYCYK([γGlu-Lauroyl])K[dP]P); disulfide 4-11) | > 50 | 2.6 ± 0.7 | 1.6 | 75 | 24 | > 48 | 22 | 24 |  |  |
| CCCCCCCCCCCC(=O)NCC[C@@H]1NC(=O)[C@H]2CCCN2C(=O)[C@H](C)NC(=O)[C@H](CCCNC(=N)N)NC(=O)[C@@H]2CSSC[C@H](NC(=O)[C@H](Cc3ccc(O)cc3)NC(=O)[C@H](CCCNC(=N)N)NC1=O)C(=O)N[C@@H](Cc1ccc(O)cc1)C(=O)N[C@@H](CCC(N)=O)C(=O)N[C@@H](CCCCN)C(=O)N1CCC[C@@H]1C(=O)N1CCC[C@H]1C(=O)N[C@@H](Cc1ccc(O)cc1)C(=O)N[C@@H](Cc1c[nH]cn1)C(=O)N[C@@H](C)C(=O)N2 [Ex. 5] (cyclo(YHACRA[dP][Dab](Lauroyl)RYCYQK[dP]P); disulfide 4-11) | > 43 |  | 0.3 | 100 | 24 | > 50 | 73 | 24 | 95.5 ± 12 |  |
| CCCCCCCCCCCCOc1ccc(C[C@@H]2NC(=O)[C@H](CCCNC(=N)N)NC(=O)[C@H](CCN)NC(=O)[C@H]3CCCN3C(=O)[C@H](C)NC(=O)[C@H](CCCNC(=N)N)NC(=O)[C@@H]3CSSC[C@H](NC2=O)C(=O)N[C@@H](Cc2ccc(O)cc2)C(=O)N[C@@H](CCC(N)=O)C(=O)N[C@@H](CCCCN)C(=O)N2CCC[C@@H]2C(=O)N2CCC[C@H]2C(=O)N[C@@H](Cc2ccc(O)cc2)C(=O)N[C@@H](Cc2c[nH]cn2)C(=O)N[C@@H](C)C(=O)N3)cc1 [Ex. 7] (cyclo(YHACRA[dP][Dab]RY(Dodecyl)CYQK[dP]P); disulfide 4-11) | > 50 |  | 11.5 | 67 | 24 | > 35 | 87 | 24 | 59.8 ± 27 |  |
| CCCCCCCCCC[C@H]1NC(=O)[C@H](Cc2ccc(O)cc2)NC(=O)[C@@H]2CSSC[C@H](NC(=O)[C@H](C)NC(=O)[C@H](Cc3c[nH]cn3)NC(=O)[C@H](Cc3ccc(O)cc3)NC(=O)[C@@H]3CCCN3C(=O)[C@H]3CCCN3C(=O)[C@H](CCCCN)NC1=O)C(=O)N[C@@H](CCCNC(=N)N)C(=O)N[C@@H](C)C(=O)N1CCC[C@@H]1C(=O)N[C@@H](CCN)C(=O)N[C@@H](CCCNC(=N)N)C(=O)N[C@@H](Cc1ccc(O)cc1)C(=O)N2 [Ex. 9] (cyclo(YHACRA[dP][Dab]RYCY[X2]K[dP]P); disulfide 4-11) | > 50 | 91.3 ± 19 | 2.2 | 100 | 24 | > 13 | 76 | 24 |  |  |
| CCCCCCCCCCCC[C@@H]1NC(=O)[C@H](Cc2c[nH]cn2)NC(=O)[C@H](Cc2ccc(O)cc2)NC(=O)[C@@H]2CCCN2C(=O)[C@H]2CCCN2C(=O)[C@H](CCCCN)NC(=O)[C@H](CCC(N)=O)NC(=O)[C@H](Cc2ccc(O)cc2)NC(=O)[C@@H]2CSSC[C@H](NC1=O)C(=O)N[C@@H](CCCNC(=N)N)C(=O)N[C@@H](C)C(=O)N1CCC[C@@H]1C(=O)N[C@@H](CCN)C(=O)N[C@@H](CCCNC(=N)N)C(=O)N[C@@H](Cc1ccc(O)cc1)C(=O)N2 [Ex. 2] (cyclo(YH[Gly(Dodecyl)]CRA[dP][Dab]RYCYQK[dP]P); disulfide 4-11) | > 32 | 55.8 ± 6 | 1.7 | 96 | 24 | > 13 | 62 |  |  | 23.4 |
| CCCCCCCCCCCCCC(=O)NCCCC[C@@H]1NC(=O)[C@H](Cc2ccc(O)cc2)NC(=O)[C@@H]2CSSC[C@H](NC(=O)[C@H](C)NC(=O)[C@H](Cc3c[nH]cn3)NC(=O)[C@H](Cc3ccc(O)cc3)NC(=O)[C@@H]3CCCN3C(=O)[C@H]3CCCN3C(=O)[C@H](CCCCN)NC1=O)C(=O)N[C@@H](CCCNC(=N)N)C(=O)N[C@@H](C)C(=O)N1CCC[C@@H]1C(=O)N[C@@H](CCN)C(=O)N[C@@H](CCCNC(=N)N)C(=O)N[C@@H](Cc1ccc(O)cc1)C(=O)N2 [Ex. 19] (cyclo(YHACRA[dP][Dab]RYCYK(Myristoyl)K[dP]P); disulfide 4-11) | > 50 | 9.1 ± 4.2 | 1.2 | 99 | 24 | > 32 | 76 | 24 |  |  |
